Laboratory results: ChEMBL document CHEMBL1201862, “PubChem BioAssay data set” (2004)
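Tested at 5 concentrations; 48 h exposure; 96-well plates; endpoints linearly interpolated, else capped at highest concentration. GI50: concentration for 50% inhibition of growth.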 Activity calls are given as the source filed them. No stated cut-off is given here; in the data, active = GI50 up to about 1.1 µM and inactive = higher.

How the values were obtained:
Assay in all cases: NCI anticancer screen, dose series, 48 h
SK-MEL-5 = tested on: SK-MEL-5
SNB-75 = tested on: SNB-75
SF-539 = tested on: SF-539
EKVX = tested on: EKVX
NCI-H522 = tested on: NCI-H522
BT-549 = tested on: BT-549
SW-620 = tested on: SW-620
OVCAR-5 = tested on: OVCAR-5
HOP-62 = tested on: HOP-62
HCC 2998 = tested on: HCC 2998
HCT-15 = tested on: HCT-15
HL-60 = tested on: HL-60
MCF7 = tested on: MCF7
K562 = tested on: K562
UO-31 = tested on: UO-31
NCI-H226 = tested on: NCI-H226
HOP-92 = tested on: HOP-92
NCI/ADR-RES = tested on: NCI/ADR-RES
Hs-578T = tested on: Hs-578T
MDA-MB-231 = tested on: MDA-MB-231

Compound | GI50 (SK-MEL-5) | GI50 (SNB-75) | GI50 (SF-539) | GI50 (EKVX) | GI50 (NCI-H522) | GI50 (BT-549) | GI50 (SW-620) | GI50 (OVCAR-5) | GI50 (HOP-62) | GI50 (HCC 2998) | GI50 (HCT-15) | GI50 (HL-60) | GI50 (MCF7) | GI50 (K562) | GI50 (UO-31) | GI50 (NCI-H226) | GI50 (HOP-92) | GI50 (NCI/ADR-RES) | GI50 (Hs-578T) | GI50 (MDA-MB-231)
NC1=C(Cl)C(=O)c2ccccc2C1=O | 0.834 µM (active) | 11.3 µM (inactive) | 8.24 µM (inactive) | 14.7 µM (inactive) | 5.22 µM (inactive) | 2.47 µM (inactive) | 5.42 µM (inactive) | 10.3 µM (inactive) | 11.4 µM (inactive) | 10.6 µM (inactive) | 3.46 µM | 3.55 µM (inactive) | 2.06 µM (inactive) | 8.11 µM (inactive) | 13.7 µM (inactive) | 7.35 µM (inactive) | 14.6 µM (inactive) |  |  | 
Oc1c(Cl)cc2cc1-c1cc(cc(Cl)c1O)CCc1c(cc(Cl)c(O)c1Cl)-c1cc(Cl)c(c(Cl)c1O)/C=C\2 | 8.17 µM (inactive) | 9.02 µM (inactive) |  |  |  | 16 µM (inactive) | 9.44 µM (inactive) | 10.8 µM (inactive) | 7.74 µM (inactive) | 6.98 µM (inactive) | 7.96 µM | 5.61 µM (inactive) |  | > 50 µM (inactive) |  | 11.5 µM (inactive) | 16.8 µM (inactive) | 13.7 µM (inactive) | 11.1 µM (inactive) | 
O=C(O)c1ccn(-c2cccc(-n3ccc(C(=O)O)n3)n2)n1 | > 100 µM (inactive) | > 100 µM (inactive) | > 100 µM (inactive) | > 100 µM (inactive) | > 100 µM (inactive) | > 100 µM (inactive) | > 100 µM (inactive) | > 100 µM (inactive) | > 100 µM (inactive) |  | > 100 µM | > 100 µM (inactive) | > 100 µM (inactive) | > 100 µM (inactive) | > 100 µM (inactive) | > 100 µM (inactive) |  | > 100 µM (inactive) | > 100 µM (inactive) | > 100 µM (inactive)
Cc1ccc(C(=O)N2CCN(C(=O)c3ccc(C)cc3)c3ccccc32)cc1 | 3.15 µM (inactive) | 4.68 µM (inactive) | 2.42 µM (inactive) | 20.2 µM (inactive) | 1.85 µM (inactive) | > 100 µM (inactive) | 2.93 µM (inactive) | > 63.7 µM (inactive) | 6.43 µM (inactive) | 6.58 µM (inactive) | 1.94 µM | 0.767 µM (active) | 2.48 µM (inactive) | 2.55 µM (inactive) | 4.76 µM (inactive) |  | 16.4 µM (inactive) |  | 2.47 µM (inactive) | 23.7 µM (inactive)
COc1ccc(COCCOCc2nc(C#N)c(N)o2)cc1 | > 100 µM (inactive) | > 100 µM (inactive) | > 100 µM (inactive) | > 100 µM (inactive) | 6.79 µM (inactive) | > 100 µM (inactive) | > 100 µM (inactive) | > 100 µM (inactive) | > 100 µM (inactive) | > 100 µM (inactive) | > 100 µM | > 100 µM (inactive) | > 100 µM (inactive) | > 100 µM (inactive) | > 100 µM (inactive) | > 100 µM (inactive) | > 100 µM (inactive) | > 100 µM (inactive) |  | > 100 µM (inactive)
CCNC(=S)N/N=C/c1cc(OC)ccc1O | > 100 µM (inactive) | > 100 µM (inactive) | > 100 µM (inactive) | 89.1 µM (inactive) | 65.8 µM (inactive) |  | > 100 µM (inactive) | > 100 µM (inactive) | > 100 µM (inactive) | > 100 µM (inactive) | 47.6 µM | > 100 µM (inactive) | 5.74 µM (inactive) | 97.9 µM (inactive) | 7.01 µM (inactive) | > 100 µM (inactive) | 45.1 µM (inactive) | 83.6 µM (inactive) | > 100 µM (inactive) | > 100 µM (inactive)
CC(C(O)Cc1ccccc1)N(C)/N=N/c1ccc([N+](=O)[O-])cc1 (stereo not given) | 18.6 µM (inactive) | 23.1 µM (inactive) |  | 22.9 µM (inactive) |  | 19.6 µM (inactive) | 23.9 µM (inactive) | 25.5 µM (inactive) | 16.7 µM (inactive) | 16.7 µM (inactive) | 22.8 µM | 84.1 µM (inactive) | 24 µM (inactive) | 27.2 µM (inactive) | 15.2 µM (inactive) | 19.5 µM (inactive) |  | 18.8 µM (inactive) | 24 µM (inactive) | 14.6 µM (inactive)
C=C1C(=O)CC2C1CC(=O)/C(C)=C/CCC(C)(O)C2O (stereo not given) | 6.79 µM (inactive) | 11.8 µM (inactive) |  | 18.7 µM (inactive) | 1.5 µM (inactive) |  | 7.26 µM (inactive) | 17.5 µM (inactive) | 26.7 µM (inactive) | 7.74 µM (inactive) | 4.9 µM | 4.41 µM (inactive) | 0.249 µM (active) | 2.19 µM (inactive) | 11.7 µM (inactive) | 30.9 µM (inactive) | 8.67 µM (inactive) | 8.2 µM (inactive) | 5.4 µM (inactive) | 1.07 µM (active)
COC(CO[Si](C)(C)N[Si](C)(C)OCC(OC)c1ccccc1)c1ccccc1 (stereo not given) | > 100 µM (inactive) | > 100 µM (inactive) |  | > 100 µM (inactive) |  | > 100 µM (inactive) | > 100 µM (inactive) | > 100 µM (inactive) | > 100 µM (inactive) | > 100 µM (inactive) | > 100 µM | > 100 µM (inactive) | > 100 µM (inactive) | > 100 µM (inactive) | > 100 µM (inactive) | > 100 µM (inactive) | > 100 µM (inactive) | > 100 µM (inactive) |  | 
CNC(=O)O/N=C1\N(C)CN(c2ccccc2)C12CCN(CCCC(=O)c1ccc(F)cc1)CC2 | 18.5 µM (inactive) | 1.01 µM (active) | 50.6 µM (inactive) | > 100 µM (inactive) | 99.8 µM (inactive) |  | > 100 µM (inactive) | 58.2 µM (inactive) | 39.4 µM (inactive) | 43 µM (inactive) | > 100 µM | 82 µM (inactive) | 47.9 µM (inactive) | 38.5 µM (inactive) | 90.8 µM (inactive) | > 100 µM (inactive) | 35.6 µM (inactive) | 45.9 µM (inactive) | > 100 µM (inactive) | 33.5 µM (inactive)
O=P1(c2ccccc2)c2ccccc2-c2ccccc21 | 44.4 µM (inactive) | 68.9 µM (inactive) | > 100 µM (inactive) | > 100 µM (inactive) | > 100 µM (inactive) | 65.2 µM (inactive) | > 100 µM (inactive) |  | > 100 µM (inactive) | > 100 µM (inactive) | > 100 µM | 66.1 µM (inactive) | > 100 µM (inactive) | 86.9 µM (inactive) | > 100 µM (inactive) | > 100 µM (inactive) | 13.9 µM (inactive) |  | > 100 µM (inactive) | > 100 µM (inactive)
CC1(C)OCC(C2OC(OC(=O)c3ccc([N+](=O)[O-])cc3)C3OC(C)(C)OC23)O1 (stereo not given) | > 100 µM (inactive) | 16.6 µM (inactive) | > 100 µM (inactive) | 61.8 µM (inactive) | 75.5 µM (inactive) | > 100 µM (inactive) | > 100 µM (inactive) | > 100 µM (inactive) | 27.3 µM (inactive) | > 100 µM (inactive) | > 100 µM |  | > 100 µM (inactive) | > 100 µM (inactive) | 66.1 µM (inactive) | > 100 µM (inactive) |  | 69.5 µM (inactive) |  | > 100 µM (inactive)
O=c1oc2nc(-c3ccccc3)cc(C(F)(F)F)c2n1Cc1ccccc1 | 5.42 µM (inactive) |  | 7.5 µM (inactive) | 7.03 µM (inactive) | 4.33 µM (inactive) | 19.7 µM (inactive) | 6.5 µM (inactive) | > 100 µM (inactive) | 12.2 µM (inactive) | > 25.8 µM (inactive) | 1.87 µM | 2.15 µM (inactive) | 0.995 µM (active) | 1.53 µM (inactive) |  | > 100 µM (inactive) | 85.5 µM (inactive) | 3.42 µM (inactive) |  | > 24.4 µM (inactive)
Cc1ccc(C(=O)CC(O)(C(F)(F)F)C(F)(F)F)cc1[N+](=O)[O-] | 16.4 µM (inactive) | 18.3 µM (inactive) | 17 µM (inactive) | 17.9 µM (inactive) | 0.331 µM (active) |  | 16.8 µM (inactive) | 18 µM (inactive) | 15.2 µM (inactive) | 6.9 µM (inactive) | 3.92 µM | 2.12 µM (inactive) | 3.14 µM (inactive) | 2.79 µM (inactive) | 5.81 µM (inactive) | 20.2 µM (inactive) | 9.4 µM (inactive) | 16.3 µM (inactive) | 9.46 µM (inactive) | 7.55 µM (inactive)
O=C1CCCC2=C1CC1=C(CCCC1=O)N2c1ccccc1C(=O)O | > 100 µM (inactive) | > 100 µM (inactive) | > 100 µM (inactive) | > 100 µM (inactive) |  | > 100 µM (inactive) | > 100 µM (inactive) | > 100 µM (inactive) |  | > 100 µM (inactive) | > 100 µM | > 100 µM (inactive) | > 100 µM (inactive) | > 100 µM (inactive) | > 100 µM (inactive) | > 100 µM (inactive) | > 100 µM (inactive) | > 100 µM (inactive) | > 100 µM (inactive) | 
Cc1cccc2c(=O)c3cccc(CC(=O)O)c3oc12 | > 100 µM (inactive) |  | > 100 µM (inactive) | > 100 µM (inactive) | > 100 µM (inactive) |  | > 100 µM (inactive) |  | > 100 µM (inactive) | > 100 µM (inactive) | > 100 µM | > 100 µM (inactive) | > 100 µM (inactive) | > 100 µM (inactive) | > 100 µM (inactive) | > 100 µM (inactive) | > 100 µM (inactive) | > 100 µM (inactive) | > 100 µM (inactive) | > 100 µM (inactive)
